Results: patent publication EP4459280A1, “SCREENING AND USES OF GLUTATHIONE SYNTHETASE MODULATORS” (Max-Planck-Gesellschaft zur Förderung der Wissenschaften …, priority 2023, dated 2024)
Blank lines part the entries; values can stand above or below the compound they belong to. Residues, ends and D or L forms follow the SMILES beside them. *: point of attachment. Cbz = O=C(OCc1ccccc1)*

Assays:
SREBP2 [1] = assay: Immunoblotting for SREBP2 cleavage in HepG2 cells; type: cell-based, human; conditions: Hep G2 starved of glutamine 24h, brefeldin A 0.5 µg/ml
Description: (§1) Primary antibodies were incubated in PBS-T overnight.

HMGCR [2] = assay: Immunoblotting for HMGCR in HepG2 cells; type: cell-based, human
From the text: (§2) HeLa adenocarcinoma cells, HepG2 hepatocellular carcinoma, and Wild-type (WT) MEFs as well as Mfn1^-/^-, and Mfn2^-/- mouse embryonic fibroblasts (MEFs) were obtained from ATCC (CCL-2, HB-8065, CRL-2991, CRL-2992, and CRL-2993, respectively). eGFP-SCAP-expressing CHO Chinese hamster ovary cells were provided by Drs. J Goldstein and M Brown (U of Texas Southwestern Medical Center); WT and MFN2 KO U2OS cells were provided by Dr. Edward A Fon (McGill University, Montreal, Canada). All cell lines were cultured in complete DMEM (cDMEM: DMEM + 10% heat-inactivated FBS + 1%P/S) at 5% CO2 except for CHO cells which were cultured in DMEM/F12 media containing 5% heat-inactivated FBS. For all the experiments, cells were plated and cultivated without FBS (DMEM and 10% H20 for cell culture + 1%P/S) to promote cholesterol synthesis. Cells were tested frequently for Mycoplasma infection by PCR.
For all experiments, unless otherwise indicated, cells were plated in complete DMEM. The next day cell monolayers were rinsed 2X with 1X PBS and cultured in DMEM overnight, followed by treatments as indicated in text. Whole cells were harvested in chilled lysis buffer (50mM Hepes-KOH pH 7.4, 40mM NaCl, 2mM EDTA, 1.5mM NaVO4, 50mM NaF, 10mM NaPyrophosphate, 10mM, NaBetaGlycerophosphate (disodium salt pentahydrate), 1% Triton X-100) containing 0.25U/uL. Lysates were subsequently shaken at 1500 rpm at 37°C for 15min, centrifuged for 5 min at 1200 rpm at 4°C, and the supernatant was transferred into a fresh tube. Protein concentration was quantified using Pierce™ BCA Protein Assay Kit and after diluted with 5X SDS added to a final of 1X SDS. 10 ug of protein was applied in an SDS-PAGE gel and transferred to PVDF membranes. Membranes were blocked with PBS-0.05% Tween 20 (PBS-T) and 5% non-fat milk for 30min. Primary antibodies were incubated in PBS-T overnight. Following incubation, blots were washed three times in PBS-T and then incubated with horseradish peroxidase (HRP)-conjugated anti-mouse IgG (CST #7076) or anti-rabbit IgG (CST #7074) at a 1:10000 dilution for 60 minutes ar RT and developed using a chemiluminescence system (Pierce™ ECL Western Blotting Substrate or Pierce SuperSignal™ West Atto Ultimate Sensitivity Substrate; ThermoFisher Scientific). […]

HMGCR [3] = assay: Immunoblotting for HMGCR in U2OS cells; type: cell-based, human; conditions: for rescue of HMGCR in glutamine-starved cells: U2OS w/o glutamine 24h, then treated 24h: 1mM sodium pyruvate, DON at indicated concentrations, 2 mM D-gln; for loss of HMGCR during glutamine withdrawal: U2OS gln-, αKG 1 mM (24h), ISRIB 200nM (8h)
Description: Cells were tested frequently for Mycoplasma infection by PCR.
as §1

ATF4 = assay: Immunoblotting for ATF4 (integrated stress response) in U2OS cells; type: cell-based, human; conditions: U2OS ± gln, ISRIB 200nM, 8h
Description: as §1

GLUL = GLUL (Homo sapiens, UniProt P15104); conditions: HepG2, 500 µM MSX for 8h; immunoblot
Sequence of GLUL (P15104 whole entry): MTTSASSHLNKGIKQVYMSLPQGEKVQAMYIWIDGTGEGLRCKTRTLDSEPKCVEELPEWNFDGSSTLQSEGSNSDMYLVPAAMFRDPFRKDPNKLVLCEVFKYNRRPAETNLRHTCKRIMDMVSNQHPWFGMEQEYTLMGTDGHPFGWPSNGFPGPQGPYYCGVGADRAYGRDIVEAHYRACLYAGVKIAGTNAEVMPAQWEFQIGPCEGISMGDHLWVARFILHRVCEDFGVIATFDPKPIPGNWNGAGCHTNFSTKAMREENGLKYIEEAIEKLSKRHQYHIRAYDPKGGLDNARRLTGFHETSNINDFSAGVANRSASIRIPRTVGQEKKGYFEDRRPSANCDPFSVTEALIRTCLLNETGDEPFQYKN
From the text: as §2
For all experiments, unless otherwise indicated, cells were plated in complete DMEM. The next day cell monolayers were rinsed 2X with 1X PBS and cultured in DMEM overnight, followed by treatments as indicated in text. […] Protein concentration was quantified using Pierce™ BCA Protein Assay Kit and after diluted with 5X SDS added to a final of 1X SDS. […]

U2OS cells [4] = conditions: U2OS cultured 24h w/o gln, supplemented 24h with 10 mM 15NH4Cl
HepG2 cells = conditions: HepG2 cultured 24h w/o gln, supplemented 24h with 10 mM 15NH4Cl
eGFP-SCAP = assay: Immunofluorescence assay of eGFP-SCAP localization relative to the Golgi in CHO cells; type: cell-based, Chinese hamster; conditions: CHO w/o gln 24h
Description: For immunofluorescence (IF) analysis of eGFP-SCAP-expressing CHOs, .25 × 10^4 cells were plated in a 24-well glass-bottom sensoplate, starved of glutamine for 24h, and incubated with methionine sulfoximine at 0.5 mM with either no glutamine, 2 mM glutamine, or 1mM a-ketoglutarate. […] Following 3X rinses in 1X PBS, images were taken using an Olympus IXplore SpinSR spinning disk confocal microscope.

U2OS cells [5] = assay: UPLC-HRMS-based measurement of 13C-cholesterol in U2OS cells; type: cell-based, human; conditions: U2OS 24h, 25 mM 13C6-glucose, gln-, 1 mM αKG
Description: 2 × 10^5 cells were plated in complete DMEM in 6 wells plates. The following day, cells were rinsed 2X with 1X PBS and cultured in DMEM. Treatments were started the following day as indicated in the text in 6 wells plates containing. For glucose-related isotope-labeling experiments, D-Glucose-^13C6 (Sigma #389374-1G) was administed at 25mM in 1 ml of glutamine-free DMEM. For ammonia-related isotope-labeling experiments, ammonium label experiments Ammonium-^15N chloride (Sigma #299251-250MG) at 10mM. After the indicated treatments cells were washed twice with 75mM of ammonium carbonate pH =7.4 and the plates were frozen in liquid nitrogen and stored at -80°C until metabolite extraction. For metabolite extraction, 60% MeOH containing internal standards buffer was added to each well of the frozen plate. The cells were then scraped, transferred to a new tube containing MTBE and EquiSPLASH™ LIPIDOMIX® (Avanti 330731-1EA), and incubated for 30 min at 1500 rpm at 4°C. The samples were centrifuged for 10 min at 21.000xg at 4°C. The supernatants were then collected in a new tube with LCMS-grade H2O, incubated for 10 min at 1500 rpm at 15°C, and further centrifuged for 5 min at 16.000xg at 15°C to obtain a clear phase separation. The upper phase (apolar metabolites) and the down phase (polar metabolites) were collected in different tubes. […]

FDFT1 = assay: Immunoblotting for FDFT1 in U2OS cells; type: cell-based, human; conditions: U2OS starved of glutamine 8 hours, αKG 1 mM
Description: (§3) For all experiments, unless otherwise indicated, cells were plated in complete DMEM. The next day cell monolayers were rinsed 2X with 1X PBS and cultured in DMEM overnight, followed by treatments as indicated in text. […] Lysates were subsequently shaken at 1500 rpm at 37°C for 15min, centrifuged for 5 min at 1200 rpm at 4°C, and the supernatant was transferred into a fresh tube. Protein concentration was quantified using Pierce™ BCA Protein Assay Kit and after diluted with 5X SDS added to a final of 1X SDS. 10 ug of protein was applied in an SDS-PAGE gel and transferred to PVDF membranes. Membranes were blocked with PBS-0.05% Tween 20 (PBS-T) and 5% non-fat milk for 30min. Primary antibodies were incubated in PBS-T overnight.

p70 phospho-S6K (pS6K) = assay: Immunoblotting for phospho-S6K (mTORC1 activity) in U2OS cells; type: cell-based, human; conditions: U2OS gln-, αKG 1 mM
Description: as §3

SREBP2 [6] = assay: Immunoblotting for precursor and mature SREBP2 in U2OS cells; type: cell-based, human; conditions: U2OS starved of glutamine 8h ± αKG 1 mM
Description: as §3

U2OS cells [7] = assay: 13C6-glucose isotope labeling and metabolomics (AEX-MS) of TCA metabolites in U2OS cells; type: cell-based, human; conditions: U2OS 24h, gln-, 1 mM αKG
Description: 2 × 10^5 cells were plated in complete DMEM in 6 wells plates. The following day, cells were rinsed 2X with 1X PBS and cultured in DMEM. Treatments were started the following day as indicated in the text in 6 wells plates containing. For glucose-related isotope-labeling experiments, D-Glucose-^13C6 (Sigma #389374-1G) was administed at 25mM in 1 ml of glutamine-free DMEM. For ammonia-related isotope-labeling experiments, ammonium label experiments Ammonium-^15N chloride (Sigma #299251-250MG) at 10mM. After the indicated treatments cells were washed twice with 75mM of ammonium carbonate pH =7.4 and the plates were frozen in liquid nitrogen and stored at -80°C until metabolite extraction. For metabolite extraction, 60% MeOH containing internal standards buffer was added to each well of the frozen plate. The cells were then scraped, transferred to a new tube containing MTBE and EquiSPLASH™ LIPIDOMIX® (Avanti 330731-1EA), and incubated for 30 min at 1500 rpm at 4°C. The samples were centrifuged for 10 min at 21.000xg at 4°C. The supernatants were then collected in a new tube with LCMS-grade H2O, incubated for 10 min at 1500 rpm at 15°C, and further centrifuged for 5 min at 16.000xg at 15°C to obtain a clear phase separation. The upper phase (apolar metabolites) and the down phase (polar metabolites) were collected in different tubes. After, the metabolite extracts were dried down in speed vac and stored at -80°C until further analysis by LC-HRS-MS as described further.

ATF6 = assay: Immunoblotting for ATF6 cleavage in U2OS cells; type: cell-based, human; conditions: U2OS w/o glutamine 24h, then 8 hours ± 2 mM gln, 15 µg/ml tunicamycin
Description: as §1

Compound: C[C@H]1CCC/C=C/[C@@H]2C[C@H](O)C[C@H]2[C@H](O)/C=C/C(=O)O1 [BFA, brefeldin A]
SREBP2 cleavage (SREBP2 [1]): rescue SREBP2 cleavage and HMGCR in glutamine-starved cells to levels similar to those in glutamine-fed cells
HMGCR (HMGCR [2]; Hep G2 starved of glutamine 24h, brefeldin A 0.5 µg/ml): rescue SREBP2 cleavage and HMGCR in glutamine-starved cells to levels similar to those in glutamine-fed cells

Compound: O=C(Cc1ccccc1)Nc1nnc(CCSCCc2nnc(NC(=O)Cc3ccccc3)s2)s1 [BPTES, bis-2-(5-phenylacetamido-1,3,4-thiadiazol-2-yl)ethylsulfide]
HMGCR levels in glutamine-replete conditions (HMGCR [3]; U2OS 8h, 30µM BPTES, 2 mM gln, 1 mM αKG): did not reduce HMGCR levels

Compound: NC(=O)CC[C@@H](N)C(=O)O [D-glutamine]
rescue of HMGCR in glutamine-starved cells (HMGCR [3]): do not rescue HMGCR in glutamine-starved cells

Compound: [N-]=[N+]=CC(=O)CC[C@H](N)C(=O)O [DON, 6-diazo-5-oxo-L-norleucine]
rescue of HMGCR in glutamine-starved cells (HMGCR [3]): do not rescue HMGCR in glutamine-starved cells

Compound: O=C(COc1ccc(Cl)cc1)NC1CCC(NC(=O)COc2ccc(Cl)cc2)CC1 (centres unmarked) [ISRIB]
activation of ISR effector ATF4 (ATF4): blocked the activation of the key ISR effector ATF4
loss of HMGCR during glutamine withdrawal (HMGCR [3]): neither treatment prevented the loss of HMGCR during glutamine withdrawal

Compound: CC(C)C[C@@H](C=O)NC(=O)[C@H](CC(C)C)NC(=O)[C@H](CC(C)C)NC(=O)OCc1ccccc1 [MG-132] (Cbz-Leu-Leu-Leu-aldehyde)
depletion of HMGCR following glutamine withdrawal (HMGCR [3]; U2OS ± glutamine, MG-132 10 µM, 8h): did not prevent the depletion of HMGCR following glutamine withdrawal

Compound: CS(=N)(=O)CCC(N)C(=O)O (centres unmarked) [MSX, 2-amino-4-(S-methylsulfonimidosyl) butanoic acid]
migration pattern of GLUL (GLUL): led to a shift in the migration pattern of GLUL
HMGCR during glutamine starvation (HMGCR [2]; HepG2 starved of gln 24h, then w/out gln ± 500 µM MSX for 8h, immunoblot): further decreased HMGCR during glutamine starvation
ammonium chloride-induced increase in HMGCR (HMGCR [2]; HepG2 starved of gln 24h, then w/out gln, 10 mM NH4Cl ± 500 µM MSX for 8h, immunoblot): prevented the ammonium chloride-induced increase in HMGCR

Compound: Cl.N [^15N-ammonia, Ammonium-^15N chloride]
15N-labelled glutamine of total glutamine (U2OS cells [4]): less than 2%
15N-labelled glutamine of total glutamine (HepG2 cells): majority
increase of total glutamine pool (HepG2 cells): > two-fold

Compound: Cl.N [ammonia, ammonium chloride]
HMGCR following ammonia treatment (HMGCR [2]; HepG2 starved of glutamine 24h, then 24 h w/o gln ± 10 mM 15NH4Cl): increased following ammonia treatment
glutamine and HMGCR following ammonia treatment (HMGCR [3]; U2OS starved of glutamine 24h, then 24 h w/o gln ± 10 mM 15NH4Cl): neither glutamine nor HMGCR increased following ammonia treatment

EC50 (HMGCR [3]; Homo sapiens, U2OS w/o gln 24h, refed gln 8h, immunoblot, read-out: half-maximal effects of glutamine on HMGCR induction): 250 to 500 µM
Compound: NC(=O)CC[C@H](N)C(=O)O [glutamine]
Percentage of cells with Golgi-localized eGFP-SCAP (eGFP-SCAP; then gln 2 mM with MSX 500 µM): > 75%
glutamine concentration sufficient to induce HMGCR (HMGCR [3]; U2OS w/o gln 24h, refed gln 8h): 0.125 mM

Compound: CC(=O)C(=O)[O-].[Na+] [pyruvate, sodium pyruvate]
rescue of HMGCR in glutamine-starved cells (HMGCR [3]): do not rescue HMGCR in glutamine-starved cells

Compound: O=C(O)CCC(=O)C(=O)O [αKG, alpha-ketoglutarate]
13C-incorporation into cholesterol (U2OS cells [5]): did not, however, rescue the >5-fold decrease in ^13C-incorporation into cholesterol
FDFT1 protein level (FDFT1): decreased in cells starved of glutamine for 8 hours, despite αKG supplementation
mTORC1 phosphorylation of S6 kinase (S6K1) (p70 phospho-S6K (pS6K)): restored mTORC1 phosphorylation of its target ribosomal protein S6 kinase (S6K1)
processing of SREBP2 (precursor and mature forms) (SREBP2 [6]): inhibited the processing of SREBP2 with or without αKG
m+2 and m+6 citrate pools (U2OS cells [7]; 25 mM 13C6-glucose): sufficient to restore m+2 and m+6 citrate pools to those of gln+ cells
m+4 malate and succinate (U2OS cells [7]; 25 mM 13C6-glucose): blunted the increase in m+4 malate and succinate caused by glutamine starvation
levels of TCA-intermediates (total pool size) (U2OS cells [7]): partly rescued levels of TCA-intermediates
localization of GFP-SCAP (eGFP-SCAP; then gln- ± αKG 1 mM with MSX 500 µM): retained GFP-SCAP in the ER
loss of HMGCR during glutamine withdrawal (HMGCR [3]): neither treatment prevented the loss of HMGCR during glutamine withdrawal
HMGCR protein level (HMGCR [3]; U2OS starved of glutamine 8 hours, αKG 1 mM): decreased in cells starved of glutamine for 8 hours, despite αKG supplementation

Compound: tunicamycin
ATF6 cleavage (ATF6): similarly drove ATF6 cleavage in glutamine-fed or starved cells

Compound: uridine diphosphate N-acetylglucosamine [UDP-GlcNAc]
rescue of HMGCR levels during glutamine starvation by supplements (HMGCR [3]; U2OS w/o gln 8 hours, NEAA 100 µM, nucleosides, glucosamine 1 mM, ± αKG 1mM): did not rescue HMGCR levels during glutamine starvation
